Assay results: patent US8338465B2, “Cyclic carboxylic acid rhodanine derivatives for the treatment and prevention of tuberculosis” (priority 2006, dated 2012)

Each compound was assayed against T1, dihydrolipoamide acyltransferase (DlaT) (Mycobacterium tuberculosis, UniProt P9WIS7) (assay: DlaT inhibition (Dlat IC50); DTNB peroxidase assay with Lpd, DlaT and AhpD). Conditions: Dlat IC50 category.
T1 sequence (P9WIS7 1-553): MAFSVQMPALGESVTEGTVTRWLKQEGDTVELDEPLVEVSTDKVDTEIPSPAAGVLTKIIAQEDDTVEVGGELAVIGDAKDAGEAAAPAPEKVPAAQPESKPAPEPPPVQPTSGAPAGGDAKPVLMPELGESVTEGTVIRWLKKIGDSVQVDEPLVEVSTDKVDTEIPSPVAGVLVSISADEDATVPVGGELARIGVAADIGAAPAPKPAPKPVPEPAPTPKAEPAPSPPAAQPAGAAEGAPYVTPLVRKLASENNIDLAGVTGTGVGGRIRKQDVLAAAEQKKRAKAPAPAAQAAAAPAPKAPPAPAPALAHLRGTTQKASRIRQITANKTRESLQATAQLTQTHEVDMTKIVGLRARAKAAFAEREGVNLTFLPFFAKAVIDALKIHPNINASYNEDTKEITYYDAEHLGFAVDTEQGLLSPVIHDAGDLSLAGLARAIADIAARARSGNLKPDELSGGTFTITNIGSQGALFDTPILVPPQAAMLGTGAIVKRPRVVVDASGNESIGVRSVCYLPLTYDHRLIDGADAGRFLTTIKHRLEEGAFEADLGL
Assay type: biochemical

SMILES | IC50 [µM]
O=C(O)C(c1ccccc1)N1C(=O)C(=Cc2ccc(-c3ccccc3Cl)o2)SC1=S (centres unmarked) [Compound B1] | < 10
O=C(O)C(c1ccccc1)N1C(=O)C(=Cc2ccc(-c3cccc(Cl)c3)o2)SC1=S (centres unmarked) [Compound B2] | < 10
O=C(O)CCN1C(=O)C(=Cc2ccc(-c3cccc(C(F)(F)F)c3)o2)SC1=S [Compound B3] | < 10
O=C(O)CCN1C(=O)C(=Cc2ccc(-c3ccccc3C(F)(F)F)o2)SC1=S [Compound B4] | 11 to 40
O=C(O)CCN1C(=O)C(=Cc2ccc(-c3ccccc3Cl)o2)SC1=S [Compound B5] | 11 to 40
O=C(O)CN1C(=O)C(=Cc2ccc(-c3ccccc3Cl)o2)SC1=S [Compound B6] | 11 to 40
O=C(O)CCN1C(=O)C(=Cc2cccc(-c3ccccc3Cl)n2)SC1=S [Compound B7] | 41 to 80
O=C(O)C(c1ccccc1)N1C(=O)C(=Cc2cccc(-c3ccccc3Cl)n2)SC1=S (centres unmarked) [Compound B8] | 11 to 40
O=C(O)C(c1ccccc1)N1C(=O)C(=Cc2ccc(-c3ccc(Cl)cc3)o2)SC1=S (centres unmarked) [Compound B9] | < 10
O=C(O)C(c1ccccc1)N1C(=O)C(=Cc2ccc(-c3ccc(Cl)c(Cl)c3)o2)SC1=S (centres unmarked) [Compound B10] | < 10
O=C(O)CCCCCN1C(=O)C(=Cc2ccc(-c3ccccc3Cl)o2)SC1=S [Compound B11] | < 10
O=C(O)CCCCCN1C(=O)C(=Cc2ccc(-c3cccc(Cl)c3)o2)SC1=S [Compound B12] | < 10
O=C(O)CCCCCN1C(=O)C(=Cc2ccc(-c3ccc(Cl)cc3)o2)SC1=S [Compound B13] | < 10
O=C(O)CCCCCN1C(=O)C(=Cc2ccc(-c3ccc(Cl)c(Cl)c3)o2)SC1=S [Compound B14] | < 10
O=C(O)CCCCCN1C(=O)C(=Cc2cccc(-c3ccccc3Cl)n2)SC1=S [Compound B15] | 11 to 40
O=C(O)CN1C(=O)C(=Cc2ccc(-c3ccc(-c4ccccc4)cc3)o2)SC1=S [Compound B16] | < 10
O=C(O)CCN1C(=O)C(=Cc2ccc(-c3ccc(-c4ccccc4)cc3)o2)SC1=S [Compound B17] | 11 to 40
O=C(O)CCCCCN1C(=O)C(=Cc2ccc(-c3ccc(-c4ccccc4)cc3)o2)SC1=S [Compound B18] | < 10
O=C(O)C(c1ccccc1)N1C(=O)C(=Cc2ccc(-c3ccc(-c4ccccc4)cc3)o2)SC1=S (centres unmarked) [Compound B19] | < 10
O=C(O)CCCCCN1C(=O)C(=Cc2ccc(-c3cc(C(F)(F)F)ccc3Cl)o2)SC1=S [Compound B20] | < 10
COc1ccc(-c2ccc(C=C3SC(=S)N(CCCCCC(=O)O)C3=O)o2)cc1Cl [Compound B21] | 11 to 40
O=C(O)CCCCCN1C(=O)C(=Cc2ccc(-c3cccc(C(F)(F)F)c3)o2)SC1=S [Compound B22] | < 10

SMILES | IC50 [µM]
O=C(O)CCCCCN1C(=O)C(=Cc2ccc(-c3ccccc3C(F)(F)F)o2)SC1=S [Compound B23] | 11 to 40
O=C(O)CCCCCN1C(=O)C(=Cc2ccc(-c3ccccc3OC(F)(F)F)o2)SC1=S [Compound B24] | < 10
O=C(O)C(c1ccccc1)N1C(=O)C(=Cc2ncc(-c3cccc(C(F)(F)F)c3)s2)SC1=S (centres unmarked) [Compound B25] | < 10
O=C(O)CCN1C(=O)C(=Cc2ccc(-c3ccc(O)cc3)o2)SC1=S [Compound B26] | 41 to 80
O=C(O)CCCCCN1C(=O)C(=Cc2ccc(-c3ccc(O)cc3)o2)SC1=S [Compound B27] | < 10
O=C(O)C(c1ccccc1)N1C(=O)C(=Cc2ccc(-c3ccc(Oc4ccccc4)cc3)o2)SC1=S (centres unmarked) [Compound B28] | 11 to 40
O=C(O)C(c1ccccc1)N1C(=O)C(=Cc2ccc(-c3ccc(O)cc3)o2)SC1=S (centres unmarked) [Compound B29] | 11 to 40
O=C(O)CN1C(=O)C(=Cc2ccc(-c3ccc(Cc4ccccc4)cc3)o2)SC1=S [Compound B30] | < 10
O=C(O)CCN1C(=O)C(=Cc2ccc(-c3ccc(Cc4ccccc4)cc3)o2)SC1=S [Compound B31] | < 10
O=C(O)C(c1ccccc1)N1C(=O)C(=Cc2ccc(-c3ccc(Cc4ccccc4)cc3)o2)SC1=S (centres unmarked) [Compound B32] | < 10
O=C(O)CCCCCN1C(=O)C(=Cc2ccc(-c3ccc(Cc4ccccc4)cc3)o2)SC1=S [Compound B33] | 11 to 40
O=C(O)CCCCCN1C(=O)C(=Cc2ncc(-c3cccc(Cl)c3)o2)SC1=S [Compound B34] | 11 to 40
O=C(O)C(c1ccccc1)N1C(=O)C(=Cc2ncc(-c3cccc(Cl)c3)o2)SC1=S (centres unmarked) [Compound B35] | 11 to 40
O=C(O)[C@@H](c1ccccc1)N1C(=O)C(=Cc2ccc(-c3ccc(Cl)cc3)o2)SC1=S [Compound B36] | < 10
O=C(O)[C@H](c1ccccc1)N1C(=O)C(=Cc2ccc(-c3ccc(Cl)cc3)o2)SC1=S [Compound B37] | < 10
O=C(O)C(c1ccccc1)N1C(=O)C(=Cc2cc(-c3cccc(C(F)(F)F)c3)co2)SC1=S (centres unmarked) [Compound B38] | < 10
O=C(O)CCCCCN1C(=O)C(=Cc2cc(-c3cccc(C(F)(F)F)c3)co2)SC1=S [Compound B39] | 11 to 40
O=C(O)C(Cc1ccccc1)N1C(=O)C(=Cc2ccc(-c3cccc(C(F)(F)F)c3)o2)SC1=S (centres unmarked) [Compound B40] | < 10
O=C(O)C(Cc1ccccc1)N1C(=O)C(=Cc2ccc(-c3ccccc3Cl)o2)SC1=S (centres unmarked) [Compound B41] | < 10
O=C(O)C(Cc1ccccc1)N1C(=O)C(=Cc2ccc(-c3ccc(Cl)cc3)o2)SC1=S (centres unmarked) [Compound B42] | < 10
O=C(O)CN1C(=O)C(=Cc2ccc(-c3ccc(Cl)cc3Cl)o2)SC1=S [Compound B43] | < 10

Same assay, conditions: Table 1, Compounds A1 to A294; read-out: Dlat IC50 category

SMILES | IC50 [µM]
O=C(O)c1cc(N2C(=O)C(=Cc3ccc(-c4ccccc4C(F)(F)F)o3)SC2=S)ccc1F [Compound A280] | 11 to 40
O=C(O)c1cc(N2C(=O)C(=Cc3ccc(-c4ccccc4OC(F)(F)F)o3)SC2=S)ccc1F [Compound A281] | < 10
CSc1ccccc1-c1ccc(C=C2SC(=S)N(c3ccc(F)c(C(=O)O)c3)C2=O)o1 [Compound A282] | < 10
O=C(O)c1cc(N2C(=O)C(=Cc3ccc(-c4ccccc4Oc4ccccc4)o3)SC2=S)ccc1F [Compound A283] | < 10
O=C(O)c1cc(N2C(=O)C(=Cc3ccc(-c4ccccc4-c4ccccc4)o3)SC2=S)ccc1F [Compound A284] | < 10
CNS(=O)(=O)c1ccc(-c2ccc(C=C3SC(=S)N(c4cccc(C(=O)O)c4)C3=O)o2)cc1 [Compound A286] | 11 to 40
CNS(=O)(=O)c1ccc(-c2ccc(C=C3SC(=S)N(c4ccc(F)c(C(=O)O)c4)C3=O)o2)cc1 [Compound A287] | 11 to 40
NS(=O)(=O)c1ccc(-c2ccc(C=C3SC(=S)N(c4cccc(C(=O)O)c4)C3=O)o2)cc1 [Compound A288] | 11 to 40
O=C(O)c1ccc(-c2ccc(C=C3SC(=S)N(c4ccccc4)C3=O)o2)cc1O [Compound A289] | < 10
O=C(O)c1ccc(-c2ccc(C=C3SC(=S)N(c4cccc(O)c4)C3=O)o2)cc1 [Compound A290] | < 10
O=C(O)c1ccc(-c2ccc(C=C3SC(=S)N(c4ccc(O)cc4)C3=O)o2)cc1 [Compound A291] | < 10
NC(=O)c1cccc(N2C(=O)C(=Cc3ccc(-c4ccc(C(=O)O)cc4)o3)SC2=S)c1 [Compound A293] | 11 to 40
NS(=O)(=O)c1ccc(N2C(=O)C(=Cc3ccc(-c4ccc(C(=O)O)cc4)o3)SC2=S)cc1 [Compound A294] | < 10
